# Active and inactive are the calls of the source. The calls are words filed in the database; no cut-off is given here.
# Legend:
# Staphylococcus aureus [1] = assay: Antibacterial activity against Staphylococcus aureus ATCC6538 incubated for 18 to 20 hrs by double dilution method; type: functional; conditions: time 18-20 hrs
# Staphylococcus aureus [2] = assay: Antibacterial activity against methicillin-resistant Staphylococcus aureus ATCC2858 incubated for 18 to 20 hrs by double dilution method; type: functional; conditions: time 18-20 hrs
# Escherichia coli = assay: Antibacterial activity against Escherichia coli incubated for 18 to 20 hrs by double dilution method; type: functional; conditions: time 18-20 hrs
# Pseudomonas aeruginosa = assay: Antibacterial activity against Pseudomonas aeruginosa incubated for 18 to 20 hrs by double dilution method; type: functional; conditions: time 18-20 hrs
# Candida albicans = assay: Antibacterial activity against Candida albicans ATCC10231 incubated for 18 to 20 hrs by double dilution method; type: functional; conditions: time 18-20 hrs
# Staphylococcus aureus [3] = assay: Antibacterial activity against methicillin-resistant Staphylococcus aureus clinical isolate ATCC0101 incubated for 18 to 20 hrs by double dilution method; type: functional; conditions: time 18-20 hrs
# Staphylococcus aureus [4] = assay: Antibacterial activity against methicillin-resistant Staphylococcus aureus clinical isolate ATCC05107 incubated for 18 to 20 hrs by double dilution method; type: functional; conditions: time 18-20 hrs
# Staphylococcus aureus [5] = assay: Antibacterial activity against methicillin-resistant Staphylococcus aureus clinical isolate ATCC10105 incubated for 18 to 20 hrs by double dilution method; type: functional; conditions: time 18-20 hrs
# HepG2 [6] = assay: Cytotoxicity against human HepG2 cells assessed as cell survival rate at 50 uM incubated for 24 hrs by MTT assay relative to control; type: functional
# HepG2 [7] = assay: Cytotoxicity against human HepG2 cells assessed as cell survival rate at 25 uM incubated for 24 hrs by MTT assay relative to control; type: functional
# Staphylococcus aureus [8] = assay: Antibiofilm activity against methicillin-resistant Staphylococcus aureus ATCC2858 assessed as biofilm eradication at 0.049 to 100 uM incubated for 24 hrs by crystal violet staining based assay; type: functional, organism-based; conditions: dose 0.049-100 µM
# Staphylococcus aureus [9] = assay: Antibiofilm activity against methicillin-resistant Staphylococcus aureus ATCC2858 assessed as minimal biofilm eradication concentration incubated for 24 hrs by crystal violet staining based assay; type: functional
# Staphylococcus aureus [10] = assay: Antibacterial activity against methicillin-resistant Staphylococcus aureus ATCC2858 assessed as reduction in bacterial growth at 0.5 to 4 times of MIC measured after 4 to 8 hrs by time kill assay; type: functional, organism-based; conditions: time 4-8 hrs
# Staphylococcus aureus [11] = assay: Induction of drug resistance in methicillin-resistant Staphylococcus aureus ATCC2858 assessed as fold increase in MIC measured over 20 passage by broth dilution assay; type: functional; conditions: time 20.0 day
# Staphylococcus aureus [12] = assay: Antibiofilm activity against methicillin-resistant Staphylococcus aureus ATCC2858 assessed as biofilm eradication incubated for 24 hrs by crystal violet staining based assay; type: functional, organism-based; conditions: dose 0.049-100 µM, DDE = dose-dependent effect
# Cell membrane = assay: Induction of cell membrane damage in methicillin-resistant Staphylococcus aureus ATCC2858 at 2 times of MIC measured after 4 to 12 hrs by DAPI and propidium iodide staining based confocal laser scanning microscopy analysis; conditions: time 4-12 hrs
# Staphylococcus aureus [13] = assay: Induction of drug resistance in methicillin-resistant Staphylococcus aureus ATCC2858 assessed as fold increase in MIC measured after 19 passage by broth dilution assay; type: functional; conditions: time 19.0 day
# [14] = Toxicity in overnight fasted ICR mouse assessed as change in appearance at 200 mg/kg, IG measured for 7 days; type: organism-based; conditions: in vivo, po, 168 h, time 7 day
# [15] = Toxicity in overnight fasted ICR mouse assessed as change in activity at 200 mg/kg, IG measured for 7 days; type: organism-based; conditions: in vivo, po, 168 h, time 7 day
# [16] = Toxicity in overnight fasted ICR mouse assessed as change in body weight at 200 mg/kg, IG measured for 7 days; type: organism-based; conditions: in vivo, po, 168 h, time 7 day
# [17] = Hepatotoxicity in C57BL/6J mouse assessed as central necrosis at 200 mg/kg, po measured after 24 hrs by hematoxylin and eosin staining based immunohistochemical analysis; type: toxicity, organism-based; conditions: in vivo
# [18] = Hepatotoxicity in C57BL/6J mouse assessed as steatosis in hepatic hilum at 200 mg/kg, po measured after 24 hrs by hematoxylin and eosin staining based immunohistochemical analysis; type: toxicity, organism-based; conditions: in vivo
# Staphylococcus aureus [19] = assay: Antibacterial activity against methicillin-resistant Staphylococcus aureus ATCC2858 infected in C57BL/6J mouse assessed as log reduction in bacterial titres in blood at 2 mg/kg, ip measured after 24 hrs; type: functional
# Staphylococcus aureus [20] = assay: Antibacterial activity against methicillin-resistant Staphylococcus aureus ATCC2858 infected in C57BL/6J mouse assessed as log reduction in bacterial titres in blood at 5 mg/kg, ip measured after 24 hrs; type: functional
SMILES,MIC (Staphylococcus aureus [1]),MIC (Staphylococcus aureus [2]),MIC (Escherichia coli),MIC (Pseudomonas aeruginosa),MIC (Candida albicans),other results
O=C(Nc1ccc(F)cc1)Nc1ccc(Sc2nc3ccccc3s2)c(Cl)c1,0.78 µM,1.56 µM,> 200 µM,> 200 µM,> 200 µM,–
O=C(Nc1ccc(C(F)(F)F)cc1)Nc1ccc(Sc2nc3ccccc3s2)c(Cl)c1,0.39 µM,0.78 µM,> 200 µM,> 200 µM,> 200 µM,MIC (Staphylococcus aureus [3]): 0.78 µM; MIC (Staphylococcus aureus [4]): 1.56 µM; MIC (Staphylococcus aureus [5]): 1.56 µM; Activity (HepG2 [6]): 20%; Activity (HepG2 [7]): >75%; Activity (Staphylococcus aureus [8]): Active; MBEC (Staphylococcus aureus [9]): 5 µM
CC(=O)NC[C@H]1CN(c2ccc(N3CCOCC3)c(F)c2)C(=O)O1 [LINEZOLID],3.12 µM,6.25 µM,> 50 µM,> 50 µM,–,–
O=C(Nc1ccc(Sc2nc3ccccc3s2)cc1)Nc1ccc(F)c(F)c1,0.39 µM,0.78 µM,> 200 µM,> 200 µM,> 200 µM,MIC (Staphylococcus aureus [3]): 1.56 µM; MIC (Staphylococcus aureus [4]): 3.12 µM; MIC (Staphylococcus aureus [5]): 1.56 µM
O=C(Nc1ccc(Sc2nc3ccccc3s2)c(Cl)c1)Nc1ccccc1C(F)(F)F,3.12 µM,3.12 µM,> 200 µM,> 200 µM,> 200 µM,–
O=C(Nc1ccc(Br)cc1)Nc1ccc(Sc2nc3ccccc3s2)c(Cl)c1,0.78 µM,0.78 µM,> 200 µM,> 200 µM,> 200 µM,–
O=C(NCc1ccccc1Cl)Nc1ccc(Sc2nc3ccccc3s2)c(Cl)c1,> 200 µM,> 200 µM,> 200 µM,> 200 µM,> 200 µM,–
CN1CCN(C(=O)Nc2ccc(Sc3nc4ccccc4s3)c(Cl)c2)CC1,100 µM,100 µM,200 µM,200 µM,200 µM,–
O=C(Nc1ccc(Sc2nc3ccccc3s2)c(Cl)c1)N1CCCC1,> 200 µM,> 200 µM,> 200 µM,> 200 µM,> 200 µM,–
O=C(Nc1ccc(Sc2nc3ccccc3s2)c(Cl)c1)N1CCOCC1,> 200 µM,> 200 µM,> 200 µM,> 200 µM,> 200 µM,–
O=C(Nc1ccc(Sc2nc3ccccc3s2)c(Cl)c1)N1CCSC1,> 200 µM,> 200 µM,> 200 µM,> 200 µM,> 200 µM,–
O=C(Nc1ccc(Sc2nc3ccccc3s2)c(Cl)c1)Nc1ccc(Cl)cc1Cl,0.78 µM,0.78 µM,> 200 µM,> 200 µM,> 200 µM,–
CO[C@@]1(NC(=O)Cc2cccs2)C(=O)N2C(C(=O)O)=C(COC(N)=O)CS[C@@H]21 [CEFOXITIN],25 µM,100 µM,50 µM,> 200 µM,–,–
O=C(Nc1ccccc1C(F)(F)F)N1CCC(Sc2nc3ccccc3s2)CC1,3.12 µM,3.12 µM,> 200 µM,> 200 µM,> 200 µM,–
O=C(Nc1ccc(Sc2nc3ccccc3s2)cc1)N1CCOCC1,200 µM,200 µM,> 200 µM,> 200 µM,> 200 µM,–
O=C(Nc1ccc(Sc2nc3ccccc3s2)cc1)Nc1ccc(C(F)(F)F)cc1,0.39 µM,0.39 µM,> 200 µM,> 200 µM,> 200 µM,MIC (Staphylococcus aureus [3]): 0.78 µM; MIC (Staphylococcus aureus [4]): 0.78 µM; MIC (Staphylococcus aureus [5]): 0.39 µM; Activity (HepG2 [7]): >75%; Activity (Staphylococcus aureus [10]): Active; Activity (Staphylococcus aureus [8]): Active; MBEC (Staphylococcus aureus [9]): 5 µM
CN[C@H](CC(C)C)C(=O)N[C@H]1C(=O)N[C@@H](CC(N)=O)C(=O)N[C@H]2C(=O)N[C@H]3C(=O)N[C@H](C(=O)N[C@H](C(=O)O)c4cc(O)cc(O)c4-c4cc3ccc4O)[C@H](O)c3ccc(c(Cl)c3)Oc3cc2cc(c3O[C@@H]2O[C@H](CO)[C@@H](O)[C@H](O)[C@H]2O[C@H]2C[C@](C)(N)[C@H](O)[C@H](C)O2)Oc2ccc(cc2Cl)[C@H]1O [VANCOMYCIN],–,0.78 µM,–,–,–,MIC (Staphylococcus aureus [3]): 0.78 µM; MIC (Staphylococcus aureus [4]): 1.56 µM; MIC (Staphylococcus aureus [5]): 1.56 µM; MBEC (Staphylococcus aureus [9]): 7 µM
O=C(Nc1ccc(C(F)(F)F)cc1)Nc1ccc(Sc2nc3cc(Cl)ccc3s2)c(Cl)c1,0.39 µM,0.78 µM,> 200 µM,> 200 µM,> 200 µM,–
CC1COc2c(N3CCN(C)CC3)c(F)cc3c(=O)c(C(=O)O)cn1c23 (stereo not drawn) [OFLOXACIN],0.78 µM,1.56 µM,0.39 µM,1.56 µM,–,MBEC (Staphylococcus aureus [9]): 3 µM
O=C(Nc1ccc(F)c(F)c1)Nc1ccc(Sc2nc3cc(Cl)ccc3s2)c(Cl)c1,0.39 µM,0.78 µM,> 200 µM,> 200 µM,> 200 µM,fold change (FC) (Staphylococcus aureus [11]): 64; MIC (Staphylococcus aureus [3]): 1.56 µM; MIC (Staphylococcus aureus [4]): 1.56 µM; MIC (Staphylococcus aureus [5]): 0.78 µM; Activity (HepG2 [6]): 50%; Activity (HepG2 [7]): >75%; Activity (Staphylococcus aureus [10]): Active; Activity (Staphylococcus aureus [12]): Dde; MBEC (Staphylococcus aureus [9]): 4 µM; Activity (Cell membrane): Active; fold change (FC) (Staphylococcus aureus [13]): 256; Activity [14]: Non-Toxic; Activity [15]: Non-Toxic; Activity [16]: Non-Toxic; Activity [17]: Non-Toxic; Activity [18]: Non-Toxic; log(activity) (Staphylococcus aureus [19]): 1.9; log(activity) (Staphylococcus aureus [20]): 2.4

# Source: ChEMBL document CHEMBL5154851, “Novel benzothiazole‒urea hybrids: Design, synthesis and biological activity as potent anti-bacterial agents against MRSA” (Eur J Med Chem, 2022)
